{"source": "paper PMC4389225", "about": "“Triaminopyrimidine is a fast-killing and long-acting antimalarial clinical candidate” (Nature Communications, 2015)", "key": {"[1]": {"experiment": "Acute anaesthetised guinea pig CVS model, compound 2", "assay_type": "in vivo", "description": "Protein binding (human free)\nGuinea Pig Study: Anaesthetised guinea pigs (n=2) were treated with compound 2 at 5 mg/kg followed by 15 mg/kg (AstraZeneca, Alderley Park, UK) using methodology based on that used to assess compound 12 at Biotrial, France. Haemodynamic and electrocardiography […]\nachieved with compound 2 in an early mouse model once exposures reached approximately 9 μM Cmax (total). Consequently, compound 2 was classified as having no therapeutic window preclinically in this model. […]"}, "[2]": {"tested_on": "Dd2 DHODH DSM265", "experiment": "[3H]-hypoxanthine incorporation assay, Dd2 DHODH DSM265 resistant", "assay_type": "cell-based", "conditions": "Plasmodium falciparum", "description": "(§1) Supplementary Table 3: Compound 9 and 12 retain their activity against Pf strains harbouring mutations to novel antimalarial agents in clinical development. Compound 9 and 12 were tested for their antiplasmodial activity against a panel of Pf strains known to harbour mutations conferring resistance to novel agents under clinical development. Parasite growth inhibition is measured using the [3H]-hypoxanthine incorporation assay. IC50s are established for each strain (n ≥2) and compared to the IC50 of Dd2 (standard pan-resistant […]"}, "[3]": {"experiment": "Dog plasma PK, IV and oral", "assay_type": "in vivo", "conditions": "male, Beagle; for clearance / AUC(0-inf) / AUC(0-t) / Cmax / MRT / half-life / Vd / bioavailability: dog; for half-life: read-out: t½ (converted); for Vd: read-out: Vss", "description": "Pharmacokinetic studies to estimate the blood levels of compounds in dogs. PK in fasted, male Beagle dogs (n = 2 per dose) was studied after a single dose administered by intravenous infusion for 15 min (IV) or by an oral route (PO). Solution formulation containing 10% ethanol, 30% PEG 400, 60% saline was used for IV administration and a suspension in 0.5% w/v HPMC with 0.1% v/v Tween 80 was used for oral administration.\n48 hours after an oral dose of 5 mg/kg. Blood samples were centrifuged and plasma samples were analyzed by LC/MS/MS. Dog PK profiles are shown in supplementary Fig. 11 and PK parameters are described in supplementary Table 9."}, "[4]": {"experiment": "Blood-plasma ratio, human", "assay_type": "in vitro ADME", "text": "Supplementary Note 5: Prediction of human clearance for compound 12 by IVIVE.\nHuman clearance (CL) was predicted by in vitro-in vivo extrapolation (IVIVE) from the in vitro Clint in human hepatocytes6. In vitro Clint was scaled to in vivo Clint as follows:\nClint in vivo = Clint in vitro * scaling factors * fublood/fuinc\nThe liver weights used for scaling were 40, 32 and 24 g/kg body weight in rat, dog and human respectively. Hepatocellularity used for scaling was 163, 169 and 120 (X 106) cells/g liver in rat, dog and human respectively. Free fraction in blood was calculated as fuplasma /Blood:Plasma (BP) ratio. BP ratio and free fraction in the hepatocyte incubation mix, fuinc, were measured in vitro. Slope and intercept from the linear regression analysis of IVIVC for a large number of AstraZeneca compounds was applied for final correction in the scaled in vivo Clint. A well stirred model was used for CL prediction.\nWhere Qh is the liver blood flow. The values of Qh in rat, dog and human are 72, 55 and 20 mL.min-1kg-1 in rat, dog and human, respectively. In vitro parameters, observed in vivo CL and predicted CL are shown in supplementary Table 10. […]\n(also on this page, place not known: in vivo in vivo CLintQ CLintQCL Predicted predicted predicted h h + ×=)\n(1 picture or pasted object on this page, not shown here)"}, "[5]": {"tested_on": "Pf 3D7A", "experiment": "in vitro parasite reduction ratio (PRR) assay", "conditions": "after 48 h of exposure, 10 times IC50"}, "[6]": {"tested_on": "Cpd 4 Unpublished Target", "experiment": "[3H]-hypoxanthine incorporation assay, Cpd 4 Unpublished Target resistant", "assay_type": "cell-based", "conditions": "Plasmodium falciparum", "description": "as §1"}, "[7]": {"tested_on": "Dd2", "experiment": "[3H]-hypoxanthine incorporation assay, Dd2", "assay_type": "cell-based, Plasmodium falciparum", "conditions": "Plasmodium falciparum, DD2", "description": "9 and 12 were tested for their antiplasmodial activity against a panel of Pf strains known to harbour mutations conferring resistance to novel agents under clinical development. Parasite growth inhibition is measured using the [3H]-hypoxanthine incorporation assay. IC50s are established for each strain (n ≥2) and compared to the IC50 of Dd2 (standard pan-resistant"}, "[8]": {"tested_on": "Dd2-6R F2 B5", "experiment": "SYBR green growth assay, Dd2-6R F2 B5", "method": "Assays were carried out in 384-well format with three technical replicates within an assay day and biological replicates carried out on three different assay days to assign a final EC50.\nThe drug was then washed off and the parasites were allowed to recover in normal growth media."}, "[9]": {"experiment": "Caco2 permeability", "conditions": "human, Caco-2"}, "[10]": {"conditions": "plasma, iv, 2.1 mg/kg, IV 2.1 mg kg-1, Dog 1"}, "[11]": {"conditions": "plasma, iv, 2.1 mg/kg, IV 2.1 mg kg-1, Dog 2"}, "[12]": {"conditions": "plasma, iv, 2.1 mg/kg, IV 2.1 mg kg-1, Mean"}, "[13]": {"conditions": "plasma, po, 5.1 mg/kg, Oral 5.1 mg kg-1, Dog 1"}, "[14]": {"conditions": "plasma, po, 5.1 mg/kg, Oral 5.1 mg kg-1, Dog 2"}, "[15]": {"conditions": "plasma, po, 5.1 mg/kg, Oral 5.1 mg kg-1, Mean"}}, "note": "Like-named read-outs stand apart in the source and are kept apart here.", "data": [{"smiles": "Cc1cc(Nc2ncc(N3CCN(C)CC3)c(N3CCCC3)n2)ccn1", "note": "[compound 2]", "values": [{"measurement": "A - Plasma Cmax Total", "setting": "[1]; 5 mg/kg i.v.", "result": 4.53, "unit": "µM"}, {"measurement": "Safety Margin (A / B)", "setting": "[1]; 5 mg/kg i.v.", "result": "None"}, {"measurement": "Summary of clinical signs and effects", "setting": "[1]; 5 mg/kg i.v.", "result": "Haemodynamic Effects"}, {"measurement": "A - Plasma Cmax Total", "setting": "[1]; 15 mg/kg i.v.", "result": 20.42, "unit": "µM"}, {"measurement": "Safety Margin (A / B)", "setting": "[1]; 15 mg/kg i.v.", "result": "None"}, {"measurement": "Summary of clinical signs and effects", "setting": "[1]; 15 mg/kg i.v.", "result": "Haemodynamic & ECG Effects"}]}, {"smiles": "Cc1nc(Nc2ncc(N3CCN(C)[C@H](C)C3)c(Nc3cc(C)n(C)n3)n2)cc(C2CC2)c1F", "note": "[compound 12, (R)-N2-(4-cyclopropyl-5-fluoro-6-methylpyridin-2-yl)-N4-(1,5-dimethyl-1H-pyrazol-3-yl)-5-(3,4-dimethylpiperazin-1-yl)pyrimidine-2,4-diamine]", "values": [{"measurement": "IC50", "setting": "[2]", "result": 6.5, "unit": "nM"}, {"measurement": "clearance", "setting": "[3]; blood, iv, 2.1 mg kg-1, Dog, read-out: Observed blood CL", "result": 19, "unit": "mL/min/kg"}, {"measurement": "AUC(0-inf)", "setting": "[3]; [10]", "result": 2.72, "unit": "µM·h"}, {"measurement": "AUC(0-t)", "setting": "[3]; [10]", "result": 2.16, "unit": "µM·h"}, {"measurement": "Cmax", "setting": "[3]; [10]", "result": 641, "unit": "nM"}, {"measurement": "MRT", "setting": "[3]; [10]", "result": 15.1, "unit": "h"}, {"measurement": "half-life", "setting": "[3]; [10]", "result": 660, "unit": "min"}, {"measurement": "AUC(0-inf)", "setting": "[3]; [11]", "result": 3.47, "unit": "µM·h"}, {"measurement": "AUC(0-t)", "setting": "[3]; [11]", "result": 2.68, "unit": "µM·h"}, {"measurement": "Cmax", "setting": "[3]; [11]", "result": 515, "unit": "nM"}, {"measurement": "MRT", "setting": "[3]; [11]", "result": 15.9, "unit": "h"}, {"measurement": "half-life", "setting": "[3]; [11]", "result": 660, "unit": "min"}, {"measurement": "AUC(0-inf)", "setting": "[3]; [12]", "result": 3.1, "unit": "µM·h"}, {"measurement": "AUC(0-t)", "setting": "[3]; [12]", "result": 2.42, "unit": "µM·h"}, {"measurement": "Cmax", "setting": "[3]; [12]", "result": 578, "unit": "nM"}, {"measurement": "MRT", "setting": "[3]; [12]", "result": 15.5, "unit": "h"}, {"measurement": "half-life", "setting": "[3]; [12]", "result": 660, "unit": "min"}, {"measurement": "clearance", "setting": "[3]; plasma, iv, 2.1 mg/kg, plasma, IV 2.1 mg kg-1, Dog 1, read-out: CL", "result": 27.5, "unit": "mL/min/kg"}, {"measurement": "Vd", "setting": "[3]; plasma, iv, 2.1 mg/kg, plasma, IV 2.1 mg kg-1, Dog 1", "result": 24.9, "unit": "L/kg"}, {"measurement": "clearance", "setting": "[3]; plasma, iv, 2.1 mg/kg, plasma, IV 2.1 mg kg-1, Dog 2, read-out: CL", "result": 21.3, "unit": "mL/min/kg"}, {"measurement": "Vd", "setting": "[3]; plasma, iv, 2.1 mg/kg, plasma, IV 2.1 mg kg-1, Dog 2", "result": 20.4, "unit": "L/kg"}, {"measurement": "clearance", "setting": "[3]; plasma, iv, 2.1 mg/kg, plasma, IV 2.1 mg kg-1, Mean, read-out: CL", "result": 24.4, "unit": "mL/min/kg"}, {"measurement": "Vd", "setting": "[3]; plasma, iv, 2.1 mg/kg, plasma, IV 2.1 mg kg-1, Mean", "result": 22.7, "unit": "L/kg"}, {"measurement": "AUC(0-inf)", "setting": "[3]; [13]", "result": 5.87, "unit": "µM·h"}, {"measurement": "AUC(0-t)", "setting": "[3]; [13]", "result": 5.27, "unit": "µM·h"}, {"measurement": "Cmax", "setting": "[3]; [13]", "result": 300, "unit": "nM"}, {"measurement": "bioavailability", "setting": "[3]; [13]", "result": 88.1, "unit": "%"}, {"measurement": "half-life", "setting": "[3]; [13]", "result": 912, "unit": "min"}, {"measurement": "AUC(0-inf)", "setting": "[3]; [14]", "result": 8.28, "unit": "µM·h"}, {"measurement": "AUC(0-t)", "setting": "[3]; [14]", "result": 7.48, "unit": "µM·h"}, {"measurement": "Cmax", "setting": "[3]; [14]", "result": 603, "unit": "nM"}, {"measurement": "bioavailability", "setting": "[3]; [14]", "result": 96.4, "unit": "%"}, {"measurement": "half-life", "setting": "[3]; [14]", "result": 1020, "unit": "min"}, {"measurement": "AUC(0-inf)", "setting": "[3]; [15]", "result": 7.08, "unit": "µM·h"}, {"measurement": "AUC(0-t)", "setting": "[3]; [15]", "result": 6.38, "unit": "µM·h"}, {"measurement": "Cmax", "setting": "[3]; [15]", "result": 452, "unit": "nM"}, {"measurement": "bioavailability", "setting": "[3]; [15]", "result": 92.3, "unit": "%"}, {"measurement": "half-life", "setting": "[3]; [15]", "result": 966, "unit": "min"}, {"measurement": "Tmax", "setting": "[3]; plasma, Oral 5.1 mg kg-1, Dog 1", "result": 2, "unit": "h"}, {"measurement": "B:P ratio", "setting": "[4]", "result": 1.3}, {"measurement": "log kill in PRR assay", "setting": "[5]", "result": "> 4", "unit": "log"}, {"measurement": "IC50", "setting": "[6]", "result": 8.2, "unit": "nM"}, {"measurement": "IC50", "setting": "[7]", "result": 3.5, "unit": "nM"}, {"measurement": "IC50", "setting": "[8]; Plasmodium falciparum, DD2", "result": "81 ± 17.9", "unit": "nM"}, {"measurement": "increase in IC50 compared with the parental Dd2 line", "setting": "[8]; compound 6-resistant Dd2-6R clones (five clones)", "result": "3-6 fold"}, {"measurement": "Papp A→B", "setting": "[9]", "result": 25, "unit": "×10⁻⁶ cm/s"}]}]}
